According to PMC11079024, “Identification of a family of species-selective complex I inhibitors as potential anthelmintics” (Nature Communications, 2024):
Several values for one entry are separate records, joined by “and”; a condition that tells them apart may be missing. Equal values may be shown once. Read-outs that look alike come from different tables or passages of the source.

Key:
L1 wild-type C. elegans [1] = assay: 15-hour motility assay with drug alone (no KCN); assay type: cell-based, Caenorhabditis elegans; settings: without KCN, 15-hour; for Value relative to DMSO control, drug alone (without KCN), Mean: mean of replicates; for Value relative to DMSO control, drug alone (without KCN): single replicates
L1 wild-type C. elegans [2] = settings: drug + KCN, 15-hour; for KCN survival assay value relative to DMSO control, Mean: mean of replicates; for KCN survival assay value relative to DMSO control: single replicates
L1 wild-type C. elegans [3] = assay: whole plant or invertebrate; settings: Caenorhabditis elegans, 15 h
C. elegans = C. elegans chemical screens of RIKEN NPD libraries at 50 μM (hit identification in KCN survival and development/viability assays); assay type: cell-based, Caenorhabditis elegans; settings: screened at 50 μM in triplicate; […]; KCN = KCN survival assay, Dev. & Viability = development/viability assay

Cc1cc(C(C#N)c2ccc(Cl)cc2)c(Cl)cc1NC(=O)c1cc(I)cc(I)c1O (stereo not drawn) [Closantel]
Value relative to DMSO control, drug alone (without KCN), Mean (L1 wild-type C. elegans [1]; 0.025 µM): 1.096 | Value relative to DMSO control, drug alone (without KCN) (L1 wild-type C. elegans [1]; 0.025 µM): 1.270 and 1.000 and 1.019 | Value relative to DMSO control, drug alone (without KCN), Mean (L1 wild-type C. elegans [1]; 0.05 µM): 0.995 | Value relative to DMSO control, drug alone (without KCN) (L1 wild-type C. elegans [1]; 0.05 µM): 1.190 and 0.812 and 0.983 | Value relative to DMSO control, drug alone (without KCN), Mean (L1 wild-type C. elegans [1]; 0.1 µM): 0.999 | Value relative to DMSO control, drug alone (without KCN) (L1 wild-type C. elegans [1]; 0.1 µM): 1.131 and 0.827 and 1.040 | Value relative to DMSO control, drug alone (without KCN), Mean (L1 wild-type C. elegans [1]; 0.2 µM): 1.003 | Value relative to DMSO control, drug alone (without KCN) (L1 wild-type C. elegans [1]; 0.2 µM): 1.030 and 1.024 and 0.957 | Value relative to DMSO control, drug alone (without KCN), Mean (L1 wild-type C. elegans [1]; 0.4 µM): 0.958 | Value relative to DMSO control, drug alone (without KCN) (L1 wild-type C. elegans [1]; 0.4 µM): 1.006 and 0.910 and 0.957 | Value relative to DMSO control, drug alone (without KCN), Mean (L1 wild-type C. elegans [1]; 0.8 µM): 1.081 | Value relative to DMSO control, drug alone (without KCN) (L1 wild-type C. elegans [1]; 0.8 µM): 1.194 and 1.047 and 1.003 | Value relative to DMSO control, drug alone (without KCN), Mean (L1 wild-type C. elegans [1]; 3.1 µM): 0.969 | Value relative to DMSO control, drug alone (without KCN) (L1 wild-type C. elegans [1]; 3.1 µM): 1.240 and 0.805 and 0.863 | Value relative to DMSO control, drug alone (without KCN), Mean (L1 wild-type C. elegans [1]; 6.3 µM): 1.048 | Value relative to DMSO control, drug alone (without KCN) (L1 wild-type C. elegans [1]; 6.3 µM): 1.218 and 0.919 and 1.007 | Value relative to DMSO control, drug alone (without KCN), Mean (L1 wild-type C. elegans [1]; 12.5 µM): 1.059 | Value relative to DMSO control, drug alone (without KCN) (L1 wild-type C. elegans [1]; 12.5 µM): 1.241 and 0.872 and 1.065 | Value relative to DMSO control, drug alone (without KCN), Mean (L1 wild-type C. elegans [1]; 25 µM): 0.703 | Value relative to DMSO control, drug alone (without KCN) (L1 wild-type C. elegans [1]; 25 µM): 0.678 and 0.775 and 0.655 | KCN survival assay value relative to DMSO control, Mean (L1 wild-type C. elegans [2]; 0.025 µM): 0.976 | KCN survival assay value relative to DMSO control (L1 wild-type C. elegans [2]; 0.025 µM): 0.959 and 0.928 and 1.042 | KCN survival assay value relative to DMSO control, Mean (L1 wild-type C. elegans [2]; 0.05 µM): 0.987 | KCN survival assay value relative to DMSO control (L1 wild-type C. elegans [2]; 0.05 µM): 1.068 and 0.937 and 0.955 | KCN survival assay value relative to DMSO control, Mean (L1 wild-type C. elegans [2]; 0.1 µM): 0.937 | KCN survival assay value relative to DMSO control (L1 wild-type C. elegans [2]; 0.1 µM): 0.967 and 0.903 and 0.941 | KCN survival assay value relative to DMSO control, Mean (L1 wild-type C. elegans [2]; 0.2 µM): 0.886 | KCN survival assay value relative to DMSO control (L1 wild-type C. elegans [2]; 0.2 µM): 1.054 and 0.849 and 0.755 | KCN survival assay value relative to DMSO control, Mean (L1 wild-type C. elegans [2]; 0.4 µM): 0.363 | KCN survival assay value relative to DMSO control (L1 wild-type C. elegans [2]; 0.4 µM): 0.480 and 0.444 and 0.164 | KCN survival assay value relative to DMSO control, Mean (L1 wild-type C. elegans [2]; 0.8 µM): 0.018 | KCN survival assay value relative to DMSO control, Mean (L1 wild-type C. elegans [2]; 3.1 µM): 0.000 | KCN survival assay value relative to DMSO control, Mean (L1 wild-type C. elegans [2]; 6.3 µM): 0.000 | KCN survival assay value relative to DMSO control (L1 wild-type C. elegans [2]; 6.3 µM): 0.000 | KCN survival assay value relative to DMSO control, Mean (L1 wild-type C. elegans [2]; 12.5 µM): 0.0065 | KCN survival assay value relative to DMSO control, Mean (L1 wild-type C. elegans [2]; 25 µM): 0.0037 | LC50 (L1 wild-type C. elegans [3]; read-out: C. elegans KCN survival assay LC50): 0.332 µM

CCCC/C=C\C/C=C\CCCCCCCCc1cccc(O)c1C(=O)O [6-heptadeca-9Z,12Z-dienyl salicylic acid]
Hit Type (C. elegans): KCN | LC50 (L1 wild-type C. elegans [3]; read-out: C. elegans KCN Survival Assay LC50): 3.97 µM
